From patent publication US6451293B1, “Combination of erythrulose and a reducing sugar with self-tanning properties” (Pentapharm AG, priority 1997, dated 2002)

Key:
skin [1] = experiment: time for the skin tan/colour to develop; conditions: in vivo
Protocol: The hitherto most frequently used active substance is dihydroxyacetone (hereinafter referred to as “DHA”). The fast tanning active substance (4-7 hours) does, however, have some disadvantages. The skin colour achieved is yellowish-brown, which produces an unnatural colour, particularly in pale skin. In addition, the tan is irregular and soon pales again because the top-most layers of the epidermis are quickly shed. […] This may be attributed to the fact that erythrulose dyes the skin more slowly (the colour takes about 20-24 hours to develop) and less intensively, but instead also penetrates lower layers of the Stratum corneum where it is also able to react with the free amino groups. This not only results in more even tanning, but also in a retarded effect, with the result that the tan lasts longer. Moreover the skin becomes less dried out than, for example, with DHA alone. The synergistic effect, that will subsequently also be shown with reference to examples, of the active substance combination erythrulose/other reducing sugars, such as for example DHA, was not predictable.

skin [2] = conditions: known active substance, background statement; cited from earlier work

With O=C(CO)C(O)CO (racemic) [erythrulose, 1,3,4-trihydroxy-butan-2-one] the “time the colour takes to develop” value (skin [1]) was 20 to 24 h.
For O=C(CO)CO [DHA, 1,3-dihydroxy-propan-2-one], the time of tanning (skin [2]) is listed as 4 to 7 h.
